Measured values taken from ChEMBL document CHEMBL3244332, “Studies on quinoline derivatives and related compounds. 5. Synthesis and antimicrobial activity of novel 1-alkoxy-1,4-dihydro-4-oxo-3-quinolinecarboxylic acids” (J Med Chem, 1977).
In brackets after ≈: the same amount, converted by molar mass.

How the values were obtained:
Staphylococcus aureus = experiment: microbe, parasite or virus in culture; type: functional; conditions: 209P, 24 h
Description: Antibacterial activity against Staphylococcus aureus 209P after 24 hrs by twofold dilution assay

Pseudomonas aeruginosa = experiment: microbe, parasite or virus in culture; type: functional; conditions: Pseudomonas aeruginosa, 104, 24 h
Description: Antibacterial activity against Pseudomonas aeruginosa 104 after 24 hrs by twofold dilution assay

Proteus mirabilis [1] = experiment: microbe, parasite or virus in culture; type: functional; conditions: GN 2425, 24 h
Description: Antibacterial activity against Proteus mirabilis GN 2425 after 24 hrs by twofold dilution assay

Klebsiella pneumoniae = experiment: microbe, parasite or virus in culture; type: functional; conditions: PCI-602, 24 h
Description: Antibacterial activity against Klebsiella pneumoniae PCI-602 after 24 hrs by twofold dilution assay

Escherichia coli [2] = experiment: Antibacterial activity against Escherichia coli NIHJ after 24 hrs by twofold dilution assay; type: functional
[3] = Drug level in Wistar rat serum at 50 mg/kg, po measured at 4 hrs
[4] = Drug level in Wistar rat serum at 50 mg/kg, po measured at 1 hr
[5] = Drug level in Wistar rat serum at 50 mg/kg, po measured at 2 hrs
[6] = Drug recovery in Wistar rat urine at 50 mg/kg, po measured over 24 hrs
[7] = Drug level in Wistar rat serum at 50 mg/kg, po measured at 0.5 hr
Escherichia coli [8] = experiment: Antibacterial activity against Escherichia coli 0111 infected in ICR mouse administered orally 0.5 hr and 6 hrs post infection measured 1 week post challenge; type: functional; conditions: Escherichia coli, 0111, po
Proteus mirabilis [9] = experiment: Antibacterial activity against Proteus mirabilis GN2425 infected in ICR mouse administered orally 0.5 hr and 6 hrs post infection measured 1 week post challenge; type: functional; conditions: GN2425, po
[10] = Drug level in Wistar rat serum at 50 mg/kg, po measured at 6 hrs; type: ADME, organism-based; parameters: dose 50 mg/kg, route oral; conditions: read-out: Drug uptake

SMILES	MIC (Staphylococcus aureus)	MIC (Pseudomonas aeruginosa)	MIC (Proteus mirabilis [1])	MIC (Klebsiella pneumoniae)	MIC (Escherichia coli [2])	concentration at 4 h [3]	concentration at 1 h [4]	concentration at 2 h [5]	dose excreted at 24 h [6]	concentration at 0.5 h [7]	ED50 (Escherichia coli [8])	ED50 (Proteus mirabilis [9])	concentration at 6 h [10]
C=CCOn1cc(C(=O)O)c(=O)c2c3sc(=O)n(CC=C)c3ccc21	50 µg/mL (≈ 140 µM)	> 200 µg/mL	> 200 µg/mL	200 µg/mL (≈ 558 µM)	100 µg/mL (≈ 279 µM)								
O=C(O)c1cn(OCc2ccccc2)c2ccc3c(sc(=O)n3Cc3ccccc3)c2c1=O	> 1.56 µg/mL	> 200 µg/mL	> 200 µg/mL	> 200 µg/mL	> 200 µg/mL								
COn1cc(C(=O)O)c(=O)c2ccc3c(c21)CCC3	25 µg/mL (≈ 96.4 µM)	> 200 µg/mL	50 µg/mL (≈ 193 µM)	3.13 µg/mL (≈ 12.1 µM)	12.5 µg/mL (≈ 48.2 µM)								
C=CCOn1cc(C(=O)O)c(=O)c2cc3c(cc21)OCO3	12.5 µg/mL (≈ 43.2 µM)	200 µg/mL (≈ 691 µM)	50 µg/mL (≈ 173 µM)	3.13 µg/mL (≈ 10.8 µM)	6.25 µg/mL (≈ 21.6 µM)								
CC(C)On1cc(C(=O)O)c(=O)c2cc3c(cc21)OCO3	25 µg/mL (≈ 85.8 µM)	200 µg/mL (≈ 687 µM)	50 µg/mL (≈ 172 µM)	3.13 µg/mL (≈ 10.7 µM)	6.25 µg/mL (≈ 21.5 µM)								
CCCOn1cc(C(=O)O)c(=O)c2cc3c(cc21)OCO3	50 µg/mL (≈ 172 µM)	100 µg/mL (≈ 343 µM)	200 µg/mL (≈ 687 µM)	> 200 µg/mL	100 µg/mL (≈ 343 µM)								
O=C(O)c1cn(OCCO)c2cc3c(cc2c1=O)OCO3	100 µg/mL (≈ 341 µM)	100 µg/mL (≈ 341 µM)	100 µg/mL (≈ 341 µM)	> 200 µg/mL	100 µg/mL (≈ 341 µM)								
O=C(O)c1cn(OCC2CC2)c2cc3c(cc2c1=O)OCO3	50 µg/mL (≈ 165 µM)	> 200 µg/mL	100 µg/mL (≈ 330 µM)	> 200 µg/mL	50 µg/mL (≈ 165 µM)								
COn1cc(C(=O)O)c(=O)c2cc3c(cc21)CCO3	6.25 µg/mL (≈ 23.9 µM)	12.5 µg/mL (≈ 47.9 µM)	0.39 µg/mL (≈ 1.49 µM)	0.2 µg/mL (≈ 0.766 µM)	0.78 µg/mL (≈ 2.99 µM)	1700 ng/mL	4700 ng/mL	4000 ng/mL	11%	6200 ng/mL			
COn1cc(C(=O)O)c(=O)c2c3c(ccc21)OCC3	50 µg/mL (≈ 191 µM)	> 200 µg/mL	> 200 µg/mL	50 µg/mL (≈ 191 µM)	100 µg/mL (≈ 383 µM)								
COn1cc(C(=O)O)c(=O)c2c3c(ccc21)OCOC3	25 µg/mL (≈ 90.2 µM)	> 200 µg/mL	200 µg/mL (≈ 721 µM)	12.5 µg/mL (≈ 45.1 µM)	12.5 µg/mL (≈ 45.1 µM)								
C=CCOn1cc(C(=O)O)c(=O)c2c3c(ccc21)OCOC3	> 50 µg/mL	> 200 µg/mL	> 200 µg/mL	> 200 µg/mL	> 200 µg/mL								
COn1cc(C(=O)O)c(=O)c2c3sc(=O)n(C)c3ccc21	6.25 µg/mL (≈ 20.4 µM)	12.5 µg/mL (≈ 40.8 µM)	0.39 µg/mL (≈ 1.27 µM)	0.2 µg/mL (≈ 0.653 µM)	0.2 µg/mL (≈ 0.653 µM)	1900 ng/mL	4500 ng/mL	3700 ng/mL	1.8%	2900 ng/mL			
CCn1cc(C(=O)O)c(=O)c2c3c(ccc21)OCOC3	3.13 µg/mL (≈ 11.4 µM)	> 200 µg/mL	12.5 µg/mL (≈ 45.4 µM)		6.25 µg/mL (≈ 22.7 µM)								
CCn1cc(C(=O)O)c(=O)c2ccc3c(c21)CCC3	3.13 µg/mL (≈ 12.2 µM)	50 µg/mL (≈ 194 µM)	6.25 µg/mL (≈ 24.3 µM)	0.39 µg/mL (≈ 1.52 µM)	1.56 µg/mL (≈ 6.06 µM)								
CCOn1cc(C(=O)O)c(=O)c2cc3c(cc21)OCO3	25 µg/mL (≈ 90.2 µM)	100 µg/mL (≈ 361 µM)	50 µg/mL (≈ 180 µM)	1.56 µg/mL (≈ 5.63 µM)	3.13 µg/mL (≈ 11.3 µM)								
COn1cc(C(=O)O)c(=O)c2cc3c(cc21)OCO3 [MILOXACIN]	6.25 µg/mL (≈ 23.7 µM)	12.5 µg/mL (≈ 47.5 µM)	0.39 µg/mL (≈ 1.48 µM)	0.39 µg/mL (≈ 1.48 µM)	0.39 µg/mL (≈ 1.48 µM)	19500 ng/mL	27800 ng/mL	22300 ng/mL	7.5%	11600 ng/mL	7.2 mg/kg	30 mg/kg	1500 ng/mL
CCn1cc(C(=O)O)c(=O)c2cc3c(cc21)OCO3 [OXOLINIC ACID]	3.13 µg/mL (≈ 12 µM)	6.25 µg/mL (≈ 23.9 µM)	0.39 µg/mL (≈ 1.49 µM)	0.78 µg/mL (≈ 2.99 µM)	0.39 µg/mL (≈ 1.49 µM)	4800 ng/mL	1500 ng/mL	4700 ng/mL	2.4%	700 ng/mL	20 mg/kg	48 mg/kg	2700 ng/mL
CCn1cc(C(=O)O)c(=O)c2c3sc(=O)n(C)c3ccc21 [TIOXACIN]	3.13 µg/mL (≈ 10.3 µM)	> 200 µg/mL	0.39 µg/mL (≈ 1.28 µM)	0.2 µg/mL (≈ 0.657 µM)	0.1 µg/mL (≈ 0.329 µM)	450 ng/mL	360 ng/mL	320 ng/mL	0.3%	300 ng/mL			360 ng/mL
